# Reference: PubChem BioAssay (NCI)
#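 A five-concentration, 48-hour dose response in 96-well plates underlies each endpoint, interpolated linearly between surrounding concentrations. Abbreviation: GI50, concentration required for 50% inhibition of growth. TGI marks complete inhibition of growth.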
# Columns and labels:
# Assay in all cases: growth of human tumour cells (NCI), 48 h
# [1] = test system: 786-0 renal
# [2] = test system: A498 renal
# [3] = test system: CAKI-1 renal
# [4] = test system: HT29 colon
# [5] = test system: MDA-MB-435
# [6] = test system: OVCAR-4 ovarian
# [7] = test system: SF-268 CNS
# [8] = test system: U251 CNS
SMILES,GI50 [1] [µM],TGI [1] [µM],GI50 [2] [µM],TGI [2] [µM],TGI [3] [µM],GI50 [4] [µM],GI50 [5] [µM],TGI [5] [µM],GI50 [6] [µM],TGI [6] [µM],GI50 [7] [µM],TGI [7] [µM],GI50 [8] [µM],TGI [8] [µM],TGI [4] [µM],GI50 [3] [µM]
COc1cc(C(=O)c2cnc(-c3c[nH]c4cccc(C)c34)[nH]2)cc(OC)c1OC,0.00681,> 100,0.00176,0.00774,> 100,0.00643,0.00222,0.0051,0.529,> 100,0.00862,> 100,0.00639,49.1,,
Cc1ccc(NCCNCC(C)(C)O)c2c(=O)c3ccc(Cl)cc3sc12,1.57,3.04,1.63,3.09,,1.61,1.74,3.27,,,1.52,3.22,1.67,3.06,3.1,
O=C1C(Cl)=C(Nc2ccc(S(=O)(=O)c3ccc(NC4=C(Cl)C(=O)c5ccccc5C4=O)cc3)cc2)C(=O)c2ccccc21,1.86,3.29,3.72,16.2,2.74,2,,,,,,,,,5.02,1.38
CCn1cc(C(=O)O)c(=O)c2cc(F)c(N3CCN(S(=O)(=O)c4ccc(Cl)cc4Cl)CC3)cc21,3.19,14.9,3,30,4.8,3.63,1.97,4.44,2.58,> 100,3.86,> 100,3.3,14.7,> 100,2.01
CC(=O)ON(OCc1ccc2ccccc2c1)C(C)=O,> 100,> 100,> 100,> 100,> 100,> 100,> 100,> 100,> 100,> 100,> 100,> 100,> 100,> 100,> 100,> 100
CCCCNc1ncnc2c1cnn2-c1ccccc1,8.9,53,4.32,> 100,> 40.8,0.565,0.237,0.7,18.3,> 100,9.78,> 84.5,2.84,> 61.8,13.8,2.09
Clc1ccc2c(NCCNc3nc(N4CCOCC4)nc4ccccc34)ccnc2c1,1.79,4.95,1.87,4.62,,1.89,2.34,5.88,2.46,6.17,3.53,13,1.71,3.4,3.56,
COc1cc(C2CC(c3ccccc3)=NN2C=O)ccc1Oc1ccnc2cc(Cl)ccc12 (centres undefined),11.5,73.7,6.9,> 100,> 100,> 100,,,4.17,34,23.2,> 100,19.8,> 100,> 100,5.2
COc1cccc(C2CC(=O)Nc3c2c(C)nn3-c2nc3ccccc3[nH]2)c1OC (centres undefined),5.51,65,,8.38,19.7,4.35,3,12,6.92,> 91.3,4.92,61.3,3.63,20.3,> 47.6,3
COc1cc2c(c(OC)c1OC)-c1cc(I)c(O)cc1[C@@H](NC(C)=O)CC2,0.0614,> 100,0.0459,5.5,> 100,0.036,,,0.105,> 100,0.0666,41.1,0.0483,> 100,10.7,3.58
CCSC[C@@H]1C[C@](O)(c2ccccc2)[C@@H](c2ccccc2)O1,> 100,> 100,69.9,> 100,> 100,69.6,> 94.6,> 100,66.9,> 100,> 78.6,> 100,99.1,> 100,> 100,> 83.8
Cc1cc(NC(=O)NCc2ccc(N3C(N)=NC(N)=NC3(C)C)cc2)ccc1S(=O)(=O)F,5.21,> 100,> 46.4,> 100,> 100,0.37,0.456,> 100,9.31,> 100,0.682,> 88,0.832,> 100,> 100,> 49.3
COc1cc(-c2nc(-c3ccccc3)c(-c3ccccc3)[nH]2)cc(OC)c1O,19.9,44,0.0762,24.7,55.2,17.4,14.5,28.4,17.6,56.8,20.1,44.1,16.3,33.2,35.6,20.5
Clc1ccc(C=Nc2ccc(-c3nc4ccccc4[nH]3)cc2)cc1,> 100,> 100,17.4,> 100,> 100,> 100,> 100,> 100,> 100,> 100,58.4,> 100,65.1,> 100,> 100,> 100
Nc1ncn([C@H]2CC(O)[C@@H](CO)S2)c(=O)n1 (some centres undefined),13.9,> 100,1.99,58.1,> 100,1.25,0.783,> 100,> 100,> 100,16.4,> 100,12.7,> 100,> 100,1.99
C=CCC(N[C@@H](CO)c1ccccc1)c1ccc2ccccc2n1 (some centres undefined),> 100,> 100,93.2,> 100,> 100,> 100,> 100,> 100,> 100,> 100,,,> 100,> 100,> 100,> 100
Cn1c(=O)c(-c2ccccc2Cl)cc2cnc(NC3CCOCC3)nc21,13.1,> 25,3.34,15.5,> 25,7.02,7.22,> 25,10.4,> 25,14.6,> 25,15.1,> 25,> 25,6.58

SMILES,GI50 [1] [µM],TGI [1] [µM],GI50 [2] [µM],TGI [2] [µM],TGI [3] [µM],GI50 [4] [µM],GI50 [5] [µM],TGI [5] [µM],GI50 [6] [µM],TGI [6] [µM],GI50 [7] [µM],TGI [7] [µM],GI50 [8] [µM],TGI [8] [µM],TGI [4] [µM],GI50 [3] [µM]
CCN(CC)c1ccc(/C=N/NC(=O)Cc2ccc(Nc3ccnc(C(F)(F)F)c3)cc2)c(O)c1,0.626,> 100,2.64,> 89.5,> 25,0.638,1.29,> 100,0.442,> 100,0.455,> 100,0.586,> 100,> 68.2,0.413
Cc1cc(N2CCC(N3CCCC3)CC2)nc(/N=C(\N)Nc2ccc(Cl)c(Cl)c2)n1,1.82,3.41,1.94,3.94,2.68,1.85,1.74,3.3,2.02,3.99,2.34,6.66,1.79,3.35,3.87,1.29
O=c1c(I)c[nH]cc1I,> 100,> 100,> 100,> 100,> 100,> 100,> 100,> 100,> 100,> 100,> 100,> 100,> 100,> 100,> 100,> 100
Nc1ccc(CC[C@H]2CCC/C=C/[C@@H]3C[C@H](O)C[C@H]3[C@H](O)/C=C/C(=O)O2)cc1,0.0239,0.057,0.0169,0.0491,1.47,0.0336,0.0388,25.2,0.0339,2.73,0.0351,> 100,0.048,> 100,0.577,0.0349
Fc1ccccc1CN1COc2c(cc(Cl)c3cccnc23)C1,,21.5,,,9.93,,,8.27,,4.88,,20.3,,12.8,20.4,
Nc1nc(SCc2ccccc2CCl)c2[nH]cnc2n1,17.6,40.3,11.7,25.8,44,17.1,12.8,25.7,13.2,37.3,12.6,25.6,13.1,27.3,35.6,15.6
[Br][Pb]([c]1ccccc1)([c]1ccccc1)[c]1ccccc1,0.153,0.309,0.177,0.4,0.454,0.239,0.19,0.435,,,0.171,0.35,0.169,0.309,0.508,0.2
CC1(C)N=C(N)N=C(N)N1c1ccc(CCCC(=O)Nc2ccc(S(=O)(=O)F)cc2)cc1,4.97,> 100,37.5,> 100,> 100,2.9,3.75,> 100,> 62.3,> 100,6.59,> 100,9.22,> 100,> 100,35
COC(=O)c1c(C)nc(C)c2c1C(=O)C(Br)=C(NCc1ccccc1)C2=O,4.65,16.3,4.48,17.3,18.7,2.97,1.86,3.38,1.55,3,3.46,13.5,2.74,8.34,7.96,5.66
COc1ccc(OC)c2c(C(C)=O)cccc12,,> 100,,> 100,,,,,,,,> 100,,> 100,,
O=c1ccc(N=Nc2ccccc2)ccc1O,,58,,,29.4,,,30.7,,69.1,,> 100,,20.2,32.1,
O=C(O)CNc1ccc2c(c1)Cc1cc(Br)ccc1-2,,> 84.5,,85.8,98.4,,,45,,87.2,,> 100,,97,97.4,
COc1ccc2nc3ccccc3c(NCCNCCO)c2c1,0.649,7.55,0.431,1.71,6.5,0.378,0.474,1.83,0.836,3.26,0.46,2.95,0.479,4.35,4.33,1.22
O=C(/C=C/c1ccc(O)c(O)c1)N1CCN(c2ccc(Cl)cc2)CC1,9.39,37,2.5,16.4,48,13.1,5.93,62.2,3.48,39.5,4.92,42.6,5,23.3,32,4.71
CCCN1C(=O)/C(=C/c2ccc(SC(F)(F)F)cc2)SC1=Nc1ccc(OC)cc1,9.56,25.6,11,21.9,12.5,17.6,20,> 50,,,11.3,43.9,6.51,16.9,> 50,2.63
CCN(CC)CCOC(COc1cc(C)cc(C)c1)COc1cc(C)cc(C)c1,3.2,14.5,,,16,,1.64,3.63,2.33,13.7,4.26,17.6,3.12,11.5,,3.7
